Measurements taken from ChEMBL document CHEMBL4842383 (J Med Chem, 2021).

Legend:
[1] = target: Macrophage colony-stimulating factor 1 receptor (Homo sapiens, UniProt P07333); experiment: Inhibition of human recombinant GST-CSF1R (residues L534 to C972) expressed in Sf9 insect cells using poly(Glu,Tyr) as substrate incubated for 20 mins by ATP Kinase Glo assay
[2] = target: T1, Aurora kinase A (Homo sapiens) (UniProt O14965); experiment: Inhibition of recombinant GST-AURKA (residues Ser123 to Ser401) (unknown origin) expressed in Sf9 insect cells using tetra(-LRRASLG) peptide as substrate at 1 uM incubated for 90 mins by ATP Kinase Glo assay
T1 sequence (whole entry): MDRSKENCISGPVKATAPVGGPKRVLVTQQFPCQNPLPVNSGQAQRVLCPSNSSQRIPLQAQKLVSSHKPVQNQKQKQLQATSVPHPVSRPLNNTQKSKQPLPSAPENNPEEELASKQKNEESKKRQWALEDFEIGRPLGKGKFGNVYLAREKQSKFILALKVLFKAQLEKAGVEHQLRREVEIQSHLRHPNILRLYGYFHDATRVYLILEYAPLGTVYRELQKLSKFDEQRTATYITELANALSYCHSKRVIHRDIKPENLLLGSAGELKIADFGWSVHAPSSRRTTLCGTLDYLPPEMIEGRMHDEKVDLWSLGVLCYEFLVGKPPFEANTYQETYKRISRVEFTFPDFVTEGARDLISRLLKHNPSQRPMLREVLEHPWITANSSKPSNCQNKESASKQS

BaF3 = experiment: Antiproliferative activity against mouse BaF3 cells transfected with human ETV6-CSF1R assessed as reduction in cell viability measured after 72 hrs by MTS method; settings: BaF3, 72 h
NFS-60 = experiment: Antiproliferative activity against mouse NFS-60 cells transfected with human ETV6-CSF1R assessed as reduction in cell viability measured after 72 hrs by MTS method; format: functional, cell-based; settings: NFS-60, 72 h
Aurora kinase B = Aurora kinase B (Homo sapiens, UniProt Q96GD4); experiment: Inhibition of human recombinant full length GST-AURKB using tetra(-LRRASLG) peptide as substrate at 0.1 uM incubated for 20 mins by ATP Kinase Glo assay; format: biochemical; settings: Sf9
Chain of Aurora kinase B (Q96GD4 whole entry, the tested form may be a part): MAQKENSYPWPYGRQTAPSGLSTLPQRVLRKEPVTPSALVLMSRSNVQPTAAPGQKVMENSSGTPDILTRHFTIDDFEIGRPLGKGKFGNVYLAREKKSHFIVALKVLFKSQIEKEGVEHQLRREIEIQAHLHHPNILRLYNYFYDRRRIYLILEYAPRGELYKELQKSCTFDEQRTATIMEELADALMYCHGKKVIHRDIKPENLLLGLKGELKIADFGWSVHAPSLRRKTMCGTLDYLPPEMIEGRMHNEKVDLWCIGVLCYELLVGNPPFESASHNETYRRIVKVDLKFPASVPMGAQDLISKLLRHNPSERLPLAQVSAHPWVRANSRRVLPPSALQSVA

Aurora kinase A = target: T2, Aurora kinase A (Homo sapiens, UniProt O14965); experiment: Inhibition of recombinant GST-AURKA (residues Ser123 to Ser401) (unknown origin) expressed in Sf9 insect cells using tetra(-LRRASLG) peptide as substrate incubated for 90 mins by ATP Kinase Glo assay
T2 sequence (O14965 whole entry): T1 sequence (whole entry)

Chain of Macrophage colony-stimulating factor 1 receptor (P07333 whole entry, the tested form may be a part): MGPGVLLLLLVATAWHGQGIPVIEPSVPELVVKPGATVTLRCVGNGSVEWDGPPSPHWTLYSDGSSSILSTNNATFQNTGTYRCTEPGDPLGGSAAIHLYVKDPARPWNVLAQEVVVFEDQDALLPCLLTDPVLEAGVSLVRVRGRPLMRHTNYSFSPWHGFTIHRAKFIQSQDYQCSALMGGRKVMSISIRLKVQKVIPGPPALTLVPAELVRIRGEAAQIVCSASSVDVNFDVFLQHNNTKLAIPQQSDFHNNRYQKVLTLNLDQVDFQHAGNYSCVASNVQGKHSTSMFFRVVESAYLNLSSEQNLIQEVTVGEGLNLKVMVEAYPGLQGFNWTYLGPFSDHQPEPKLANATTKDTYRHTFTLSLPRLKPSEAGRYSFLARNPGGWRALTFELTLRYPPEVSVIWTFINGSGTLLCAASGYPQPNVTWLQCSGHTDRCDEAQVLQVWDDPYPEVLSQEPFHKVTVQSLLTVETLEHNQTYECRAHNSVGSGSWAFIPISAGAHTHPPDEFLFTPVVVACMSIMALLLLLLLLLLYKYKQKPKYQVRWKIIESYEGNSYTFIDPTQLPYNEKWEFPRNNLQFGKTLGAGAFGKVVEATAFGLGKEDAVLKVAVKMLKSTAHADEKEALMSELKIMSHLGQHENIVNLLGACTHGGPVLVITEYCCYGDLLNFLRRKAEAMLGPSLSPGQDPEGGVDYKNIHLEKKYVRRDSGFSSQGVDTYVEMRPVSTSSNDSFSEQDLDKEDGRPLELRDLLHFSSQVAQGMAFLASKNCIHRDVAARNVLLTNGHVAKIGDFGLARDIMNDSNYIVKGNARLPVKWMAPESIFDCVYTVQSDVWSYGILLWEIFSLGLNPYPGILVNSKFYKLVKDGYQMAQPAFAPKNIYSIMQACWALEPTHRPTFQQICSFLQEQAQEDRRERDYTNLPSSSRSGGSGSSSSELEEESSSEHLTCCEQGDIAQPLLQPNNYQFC

Compound | IC50 [1] [nM] | inhibition [2] [%] | EC50 (BaF3) [nM] | EC50 (NFS-60) [nM] | inhibition (Aurora kinase B) [%] | IC50 (Aurora kinase A) [nM]
CN(C)c1ccc2c(Oc3ccc(NC(=O)NCc4ccc(C#N)cc4)cc3)ncnc2c1 | 50 | 5 | 14.1 | 23 |  | 
CN(C)c1ccc2c(Oc3ccc(NC(=O)Nc4ccccc4)cc3)ncnc2c1 | 21 | 40 | 66 | 92 | 61 | 
CN(C)c1ccc2c(Oc3ccc(NC(=O)Nc4ccccc4Cl)cc3)ncnc2c1 | 15.4 | 43 | 66 | 145 | 79 | 
COc1ccccc1NC(=O)Nc1ccc(Oc2ncnc3cc(N(C)C)ccc23)cc1 | 30 | 24 | 116 | 144 | 53 | 
CC(NC(=O)Nc1ccc(Oc2ncnc3cc(N(C)C)ccc23)cc1)c1nccs1 (stereo not drawn) | 1.41 | 6 | 158 |  |  | 
CN(C)c1ccc2c(Oc3ccc(NC(=O)NCCc4ccccc4)cc3)ncnc2c1 | 15.4 | 35 | 82 | 162 | 35 | 
CN(C)c1ccc2c(Oc3ccc(NC(=O)Nc4ccc(C(F)(F)F)cc4)cc3)ncnc2c1 | 64 | 46 | 49 |  | 37 | 
O=C(Nc1ccccc1)Nc1ccc(Oc2ncnc3ccc(N4CCCC4)cc23)cc1 | > 10 | 11 |  |  |  | 
O=C(Nc1ccccc1)Nc1ccc(Oc2ncnc3cc(F)ccc23)cc1 | 753 | 13 |  |  | 27 | 
CN(C)c1ccc2c(Oc3ccc(NC(=O)NCc4ccc(S(N)(=O)=O)cc4)cc3)ncnc2c1 | 16.3 | 2 | 662 | 1090 | 62 | 
Nc1ccc2c(Oc3ccc(NC(=O)Nc4ccccc4)cc3)ncnc2c1 | 58 | 47 |  |  | 74 | 
CN(C)c1ccc2c(Oc3ccc(NC(=O)NCc4ccn(C)n4)cc3)ncnc2c1 | 204 | 58 | 167 |  |  | 
CN(C)c1ccc2c(Oc3ccc(NC(=O)NCc4ccc(C(F)(F)F)cc4)cc3)ncnc2c1 | 91 | 16 | 152 | 97 | 25 | 
CN(C)c1ccc2c(Oc3ccc(NC(=O)NCc4ccccc4)cc3)ncnc2c1 | 16.3 | 7 | 85 | 58 | 7 | 
COc1ccc2c(Oc3ccc(NC(=O)Nc4ccccc4)cc3)ncnc2c1 | 76 | 36 |  |  | 48 | 
COc1ccc2c(Nc3ccc(NC(=O)Nc4ccccc4)cc3)ncnc2c1 | 124 | 56 |  |  | 24 | 
CN(C)c1ccc2ncnc(Oc3ccc(NC(=O)Nc4ccccc4)cc3)c2c1 | 41 | 29 |  |  |  | 
CN(C)CCCOc1ccc2c(NCCc3cnc(NC(=O)Nc4cccc(Cl)c4)s3)ncnc2c1 | 19 |  |  |  |  | 

Compound | IC50 [1] [nM] | inhibition [2] [%] | EC50 (BaF3) [nM] | EC50 (NFS-60) [nM] | inhibition (Aurora kinase B) [%] | IC50 (Aurora kinase A) [nM]
CN(C)c1ccc2c(Oc3ccc(NC(=O)Nc4cccc(Cl)c4)cc3)ncnc2c1 | 10.5 | 71 | 20 | 55 | 82 | 
CN(C)c1ccc2c(Nc3ccc(NC(=O)Nc4ccccc4)cc3)ncnc2c1 | 243 | 33 |  |  | 27 | 
O=C(Nc1ccccc1)Nc1ccc(Oc2ncnc3cc(N4CCCC4)ccc23)cc1 | 63 | 43 |  |  | 43 | 
COc1ccc(Cl)cc1NC(=O)Nc1ccc(Oc2ncnc3cc(N(C)C)ccc23)cc1 | 36 | 70 | 86 | 141 | 41 | 
CNc1ccc2c(Oc3ccc(NC(=O)Nc4ccccc4)cc3)ncnc2c1 | 44 | 57 |  |  | 76 | 
CN(C)c1ccc2c(Oc3ccc(NC(=O)NCc4cccnc4)cc3)ncnc2c1 | 79 | 1 | 87 | 152 | 15 | 
COc1cccc(NC(=O)Nc2ccc(Oc3ncnc4cc(N(C)C)ccc34)cc2)c1 | 11.6 | 46 | 65 | 108 | 79 | 
O=C(Nc1cccc(Cl)c1)Nc1ncc(CCNc2ncnc3cc(F)ccc23)s1 | > 10 |  |  |  | 83 | 9
CN(C)c1ccc2c(Oc3ccc(NC(=O)Nc4ccc(Cl)cc4)cc3)ncnc2c1 | 164 | 70 | 18.4 | 25 | 50 | 
CN(C)c1ccc2c(Oc3ccc(NC(=O)NCc4c(F)c(F)c(F)c(F)c4F)cc3)ncnc2c1 | 18.6 | 3 | 108 |  | 34 | 
COc1cc2ncnc(Oc3ccc(NC(=O)Nc4ccccc4)cc3)c2cc1OC | 30 | 46 |  |  |  | 
CN(C)c1ccc2c(Oc3ccc(NC(=O)NCc4nccs4)cc3)ncnc2c1 | 24 | 2 | 318 | 202 | 19 | 
COc1ccc2c(NCCc3cnc(NC(=O)Nc4cccc(Cl)c4)s3)ncnc2c1 | 112 |  |  |  | 89 | 9
COc1ccc(CNC(=O)Nc2ccc(Oc3ncnc4cc(N(C)C)ccc34)cc2)cc1OC | 83 | 4 | 133 |  |  | 
CN(C)c1ccc2c(Oc3ccc(NC(=O)Nc4cccc(C(F)(F)F)c4)cc3)ncnc2c1 | 64 | 35 | 45 |  | 60 | 
COc1ccc(NC(=O)Nc2ccc(Oc3ncnc4cc(N(C)C)ccc34)cc2)cc1Cl | 11.1 | 53 | 43 | 53 | 44 | 
COc1cc(Oc2ccnc3cc(OC)c(OC)cc23)ccc1NC(=O)NC(C)c1nccs1 (stereo not drawn) |  | 42 | 76 | 77 | 47 | 
